Measurements: ChEMBL document CHEMBL3297697, “Property- and structure-guided discovery of a tetrahydroindazole series of interleukin-2 inducible T-cell kinase inhibitors” (J Med Chem, 2014)
In brackets after ≈: the same amount, converted by molar mass.

Key:
physchem [1] = conditions: PBS buffer, pH 7.4, Kinetic_solubility
Aurora kinase A = molecular target: T1, Aurora kinase A (Homo sapiens, UniProt O14965)
T1 sequence (O14965 whole entry): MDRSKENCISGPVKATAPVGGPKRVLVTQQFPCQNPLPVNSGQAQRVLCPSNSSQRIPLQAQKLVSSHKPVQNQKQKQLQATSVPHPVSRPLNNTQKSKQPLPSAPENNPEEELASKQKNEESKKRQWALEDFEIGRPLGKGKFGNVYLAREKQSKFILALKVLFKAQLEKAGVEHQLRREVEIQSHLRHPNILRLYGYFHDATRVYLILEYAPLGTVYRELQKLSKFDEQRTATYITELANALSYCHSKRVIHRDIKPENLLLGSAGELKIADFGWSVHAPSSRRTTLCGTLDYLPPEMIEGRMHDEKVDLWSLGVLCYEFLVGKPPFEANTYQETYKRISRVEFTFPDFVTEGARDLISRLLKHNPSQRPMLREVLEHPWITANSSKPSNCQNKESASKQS

physchem [2] = conditions: 1-octanol/phosphate buffer, pH 7.4, logD
[3] = Apparent permeability across MDCK cells; assay type: ADME, cell-based, Canis lupus familiaris; conditions: dog
[4] = octanol/water, pH 7.4, 20 min, 10000 µM
[5] = buffer, pH 7.4, 24 h, 10000 µM
Homo sapiens = organism: Homo sapiens; assay: Selectivity ratio of Ki for human His-tagged full length AURKAto Ki for GST-tagged full length ITK (unknown origin)
[6] = molecular target: T2, Tyrosine-protein kinase ITK/TSK (Homo sapiens, UniProt Q08881)
T2 sequence (Q08881 whole entry): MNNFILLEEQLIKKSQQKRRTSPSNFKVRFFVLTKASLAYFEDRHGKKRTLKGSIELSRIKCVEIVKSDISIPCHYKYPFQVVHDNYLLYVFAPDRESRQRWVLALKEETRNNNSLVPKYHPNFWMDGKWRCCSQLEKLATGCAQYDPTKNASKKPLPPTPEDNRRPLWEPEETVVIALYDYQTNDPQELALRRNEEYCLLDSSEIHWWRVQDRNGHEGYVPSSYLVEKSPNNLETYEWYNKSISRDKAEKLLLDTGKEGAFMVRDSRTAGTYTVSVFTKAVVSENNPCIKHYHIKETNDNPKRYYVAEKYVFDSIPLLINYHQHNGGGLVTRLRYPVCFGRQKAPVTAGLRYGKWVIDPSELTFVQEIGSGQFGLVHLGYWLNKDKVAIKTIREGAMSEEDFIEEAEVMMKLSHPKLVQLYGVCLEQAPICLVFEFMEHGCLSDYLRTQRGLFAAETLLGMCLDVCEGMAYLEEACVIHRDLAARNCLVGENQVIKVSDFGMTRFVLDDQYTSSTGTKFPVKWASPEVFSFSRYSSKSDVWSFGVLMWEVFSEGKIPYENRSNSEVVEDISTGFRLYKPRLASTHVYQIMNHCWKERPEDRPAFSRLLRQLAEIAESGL

[7] = molecular target: T2, Tyrosine-protein kinase ITK/TSK; remark: listed apart in the source
[8] = Plasma protein binding in human; assay type: ADME, cell-free; conditions: read-out: PPB (converted)

SMILES	solubility kinetic at 24 h, 10000 µM (physchem [1]) [µM]	Ki (Aurora kinase A) [nM]	logD at 20 min, 10000 µM (physchem [2])	also measured
CC1(CO)CCc2c(C(=O)Nc3cnn(Cc4ccccc4)c3)n[nH]c2C1 (racemic)	77 (≈ 28.1 µg/mL)	2300	2.6	
N#Cc1cccc(Cn2cc(NC(=O)c3n[nH]c4cc(-c5cn[nH]c5)ccc34)cn2)c1	< 1		3.4	Papp [3]: 0.1 ×10⁻⁶ cm/s
CC1(CO)CCc2c(C(=O)Nc3cnn(Cc4ccccc4)c3)n[nH]c2C1 (centres undefined)		200		logD [4]: 2.7; Kinetic_solubility [5]: 83 µM
COC1(C)CCc2c(C(=O)Nc3cnn(Cc4ccccc4)c3)n[nH]c2C1 (centres undefined)				Kinetic_solubility [5]: 29 µM
CN(C)CC[C@H](c1ccccc1)n1cc(NC(=O)c2n[nH]c3c2CCC(C)(C)C3)cn1	49 (≈ 20.6 µg/mL)		2	
CC1(C)CCc2[nH]nc(C(=O)Nc3cnn(Cc4ccccc4)c3)c2C1	< 1	1700	4.3	
O=C(Nc1cnn(Cc2ccccc2)c1)c1n[nH]c2c1CCC1(CCOC1)C2 (racemic)		> 5700	2.2	Kinetic_solubility [5]: 20 µM
N#Cc1cccc(Cn2cc(NC(=O)c3n[nH]c4c3CCCC4)cn2)c1	14 (≈ 4.85 µg/mL)	780	2.6	Ratio Ki (Homo sapiens): 26
O=C(Nc1cnn(Cc2ccccc2)c1)c1n[nH]c2c1CC1CC1C2 (racemic)	13 (≈ 4.33 µg/mL)	2000		logD [4]: 2.5
O=C(Nc1cnn(Cc2ccccc2)c1)c1n[nH]c2c1CC1CC1C2 (centres undefined)		870	2	Kinetic_solubility [5]: 18 µM
N#Cc1cccc(Cn2cc(NC(=O)c3n[nH]c4c3CC(c3cn[nH]c3)CC4)cn2)c1 (centres undefined) [listing 1 of 2 here]				Ratio Ki (Homo sapiens): 23
CC12Cc3[nH]nc(C(=O)Nc4cnn(Cc5ccccc5)c4)c3CC1C2 (centres undefined)		54		Kinetic_solubility [5]: 1.6 µM
COC1(C)CCc2c(C(=O)Nc3cnn(Cc4ccccc4)c3)n[nH]c2C1 (racemic)			2.2	Kinetic_solubility [5]: 77 µM
O=C(Nc1cnn(Cc2ccccc2)c1)c1n[nH]c2c1CCC(F)(F)C2	< 1	950	3.8	
CC1(C)CCc2c(C(=O)Nc3cnn([C@@H](CCS(C)(=O)=O)c4ccccc4)c3)n[nH]c2C1	14 (≈ 6.38 µg/mL)	2100	2.5	Ratio Ki (Homo sapiens): 340; Ki [6]: 6.2 nM; Papp [3]: 3.2 ×10⁻⁶ cm/s; IC50 [7]: 310 nM
CN(C)C[C@@H](c1ccccc1)n1cc(NC(=O)c2n[nH]c3c2CCC(C)(C)C3)cn1	42 (≈ 17.1 µg/mL)	210	2.7	Papp [3]: 8.1 ×10⁻⁶ cm/s

SMILES	solubility kinetic at 24 h, 10000 µM (physchem [1]) [µM]	Ki (Aurora kinase A) [nM]	logD at 20 min, 10000 µM (physchem [2])	also measured
N#Cc1cccc(Cn2cc(NC(=O)c3n[nH]c4ccccc34)cn2)c1	5.8 (≈ 1.99 µg/mL)	870	3	Ratio Ki (Homo sapiens): 20; Ki [6]: 43 nM
CC1(C)CCc2c(C(=O)Nc3cnn(Cc4ccccc4)c3)n[nH]c2C1	< 1	480	4.3	Papp [3]: 7.6 ×10⁻⁶ cm/s
O=C(Nc1cnn(Cc2ccccc2)c1)c1n[nH]c2c1CCC1(COC1)C2	78 (≈ 28.3 µg/mL)	2900	2.4	
Cc1cccc([C@H](CCN(C)C)n2cc(NC(=O)c3n[nH]c4c3CCC(C)(C)C4)cn2)c1	72 (≈ 31.3 µg/mL)	500	2.4	Papp [3]: 4.3 ×10⁻⁶ cm/s
CC1(C)CCc2c(C(=O)Nc3cnn([C@H](c4ccccc4)C4CCNCC4)c3)n[nH]c2C1	102 (≈ 44.1 µg/mL)	19	1.3	Papp [3]: 0.1 ×10⁻⁶ cm/s
CN(C)CC[C@@H](c1ccccc1)n1cc(NC(=O)c2n[nH]c3cc(-c4cn[nH]c4)ccc23)cn1	94 (≈ 42.7 µg/mL)	15		fraction unbound [8]: 0.03
CN(C)CC[C@@H](c1cccc(Cl)c1)n1cc(NC(=O)c2n[nH]c3c2CCC(C)(C)C3)cn1	25 (≈ 11.4 µg/mL)	290	2.7	
O=C(Nc1cnn(Cc2ccccc2)c1)c1n[nH]c2c1CCC1(CC1)C2	< 1	180	3.9	
N#Cc1cccc(Cn2cc(NC(=O)c3n[nH]c4c3CC(c3cn[nH]c3)CC4)cn2)c1 (racemic) [listing 1 of 2 here]	< 1	210		Ki [6]: 8.3 nM; logD [4]: 2.5; IC50 [7]: 1700 nM
CC1CCc2c(C(=O)Nc3cnn(Cc4ccccc4)c3)n[nH]c2C1 (racemic)	< 1	1100	4	
N#Cc1cccc(Cn2cc(NC(=O)c3n[nH]c4c3CC(c3cn[nH]c3)CC4)cn2)c1 (centres undefined) [listing 2 of 2 here]		220	2.4	Ki [6]: 9.4 nM; IC50 [7]: 2200 nM
CC1CCc2c(C(=O)Nc3cnn(Cc4ccccc4)c3)n[nH]c2C1 (centres undefined)		520		
CC12Cc3[nH]nc(C(=O)Nc4cnn(Cc5ccccc5)c4)c3CC1C2 (racemic)	1.3 (≈ 0.452 µg/mL)	440	3.8	
N#Cc1cccc(Cn2cc(NC(=O)c3n[nH]c4c3CC(c3cn[nH]c3)CC4)cn2)c1 (racemic) [listing 2 of 2 here]				Ratio Ki (Homo sapiens): 25
O=C(Nc1cnn(Cc2ccccc2)c1)c1n[nH]c2c1CCC1(CCOC1)C2 (centres undefined)				Kinetic_solubility [5]: 60 µM
